In patent US7713994B2 (Wyeth LLC, priority 2005, dated 2010):
Counter-ions that a name gives are not always drawn.

Key:
BT474 = assay: Cytotoxicity assay (SRB), BT474; assay type: cell-based; conditions: Homo sapiens, BT-474, 144 h, BT474 cells, SRB, 6 days; read-out: In Vitro Cellular Activity IC50 BT474
How it was run: (§1)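 Overnight-seeded monolayers (4000–12000 cells/well by line) receive compound in 5% FBS medium at 37 °C, 7% CO2. After 3 d, or 6 d for BT474, cellular protein is fixed with cold TCA, stained with SRB and read at 540 nm against untreated wells.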

HCT-116 = assay: Cytotoxicity assay (SRB), HCT-116; assay type: cell-based; conditions: Homo sapiens, HCT-116, 72 h, HCT116 cells, SRB, three days; read-out: In Vitro Cellular Activity IC50 HCT116
How it was run: as §1

LoVo = assay: Cytotoxicity assay (SRB), LoVo; assay type: cell-based; conditions: Homo sapiens, LoVo, 72 h, LoVo cells, SRB, three days; read-out: In Vitro Cellular Activity IC50 LOVO
How it was run: as §1

MCF-7 = assay: Cytotoxicity assay (SRB), MCF-7; assay type: cell-based; conditions: Homo sapiens, MCF7, 72 h, MCF-7 cells, SRB, three days; read-out: In Vitro Cellular Activity IC50 MCF-7
How it was run: as §1

SMILES: Cc1ccc(CN/C=C2\C(=O)NC(=O)c3ccc(I)cc32)cc1O [Example 157, (4Z)-4-{[(4-Methyl-3-hydroxybenzyl)amino]methylene}-6-iodoisoquinoline-′1,3(2H,4H)-dione]
- IC50 (BT474): 19 µM
- IC50 (HCT-116): 6.7 µM
- IC50 (LoVo): 22 µM
- IC50 (MCF-7): 8.2 µM
- melting point: 312 to 313 °C

SMILES: O=C1NC(=O)c2ccc(Br)cc2/C1=C/Nc1ccc(CN2CCSC2)cc1 [Example 281, (4Z)-6-Bromo-4-({[4-(1,3-thiazolidin-3-ylmethyl)phenyl]amino}methylene)isoquinoline-1,3(2H,4H)-dione]
- IC50 (BT474): 44.3 µM
- IC50 (HCT-116): 20 µM
- IC50 (LoVo): 12 µM
- IC50 (MCF-7): 19 µM
- melting point: 224 to 225 °C

SMILES: CN1CCN(C(=O)Nc2ccc(N/C=C3\C(=O)NC(=O)c4ccc(Br)cc43)cc2)CC1 [Example 215, N-(4-{[(Z)-(6-Bromo-1,3-dioxo-2,3-dihydroisoquinolin-4(1H)-′ylidene)methyl]amino}phenyl)-4-methylpiperazine-1-carboxamide]
- IC50 (BT474): 7.4 µM
- IC50 (HCT-116): 4.5 µM
- IC50 (LoVo): 6.4 µM
- IC50 (MCF-7): 7.1 µM
- melting point: > 300 °C

SMILES: CCCOc1ccc(CN/C=C2\C(=O)NC(=O)c3ccc(Br)cc32)cc1OC(=O)OC [Example 191, 5-({[(Z)-(6-Bromo-1,3-dioxo-2,3-dihydroisoquinolin-4(1H)-ylidene)methyl]amino}-methyl)-2-propoxyphenyl methyl carbonate]
- IC50 (BT474): 5.7 µM
- IC50 (HCT-116): 35 µM
- IC50 (LoVo): > 50 µM
- IC50 (MCF-7): > 50 µM
- melting point: 211 to 212 °C

SMILES: O=C1NC(=O)c2ccc(-c3ccc(Oc4ccccc4)cc3)cc2/C1=C/Nc1ccc(CN2CCCCC2)cc1 [Example 101]
- IC50 (BT474): 2.9 µM
- IC50 (HCT-116): 1.2 µM
- IC50 (LoVo): 4.3 µM
- IC50 (MCF-7): 3.2 µM
- melting point: 132 to 133 °C

SMILES: COc1ccc(CN/C=C2\C(=O)NC(=O)c3cc(Br)ccc32)cc1O [Example 135, (4Z)-7-Bromo-4-{[(3-hydroxy-4-methoxybenzyl)amino]methylene}isoquinoline-1,3(2H,4H)-dione]
- IC50 (BT474): > 50 µM
- IC50 (HCT-116): 31 µM
- IC50 (LoVo): > 50 µM
- IC50 (MCF-7): > 50 µM
- melting point: 297 to 298 °C

SMILES: COC[C@H]1CCCN1Cc1ccc(N/C=C2\C(=O)NC(=O)c3ccc(-c4ccc(OC(C)C)cc4)cc32)cc1 [Example 300, (4Z)-6-(4-Isopropoxyphenyl)-4-{[(4-{[(2R)-2-(methoxymethyl)pyrrolidin-1-yl]methyl}phenyl)amino]methylene}isoquinoline-1,3(2H,4H)-dione]
- IC50 (BT474): 17 µM
- IC50 (HCT-116): 3.1 µM
- IC50 (LoVo): 26 µM
- IC50 (MCF-7): 8.7 µM
- melting point: 200 to 201 °C

SMILES: COC[C@H]1CCCN1c1ccc2c(c1)/C(=C/Nc1ccc(CN3CCCCC3)cc1)C(=O)NC2=O [Example 121, (4Z)-6-[(2R)-2-(Methoxymethyl)pyrrolidin-1-yl]-4-({[4-(piperidin-1-ylmethyl)phenyl]amino}methylene)isoquinoline-1,3(2H,4H)-dione]
- IC50 (BT474): 7.7 µM
- IC50 (HCT-116): 5.5 µM
- IC50 (LoVo): 3.8 µM
- IC50 (MCF-7): 4.6 µM
- melting point: 135 to 136 °C

SMILES: Cc1nn(-c2ccc(NC=C3C(=O)NC(=O)c4ccc(Br)cc43)cc2)c(C)c1Cl [Example 348, 6-Bromo-4-{[4-(4-chloro-3,5-dimethyl-pyrazol-1-yl)-phenylamino]-methylene}-4H-isoquinoline-1,3-dione]
- IC50 (BT474): 6.1 µM
- IC50 (HCT-116): 2.6 µM
- IC50 (LoVo): 1.8 µM
- IC50 (MCF-7): 5.1 µM
- melting point: 290 to 291 °C

SMILES: COc1ccc(CN/C=C2\C(=O)NC(=O)c3ccc(Br)cc32)cc1OC(C)=O [Example 57, 5-({[(Z)-(6-Bromo-1,3-dioxo-2,3-dihydroisoquinolin-4(1H)-ylidene)methyl]amino}methyl)-2-methoxyphenyl acetate]
- IC50 (BT474): 3.7 µM
- IC50 (HCT-116): 9.6 µM
- IC50 (LoVo): 5.2 µM
- IC50 (MCF-7): > 50 µM
- melting point: 226 to 227 °C

SMILES: O=C1NC(=O)c2ccc(Br)cc2/C1=C/NCc1ccc(Cl)cc1 [Example 53, (4Z)-6-Bromo-4-{[(4-chlorobenzyl)amino)methylene}isoquinoline-1,3(2H,4H)-dione]
- IC50 (BT474): 37 µM
- IC50 (HCT-116): 32 µM
- IC50 (LoVo): > 50 µM
- IC50 (MCF-7): > 50 µM
- melting point: 234 to 235 °C

SMILES: CCOC(=O)C1(C(=O)OCC)Oc2ccc(CN/C=C3\C(=O)NC(=O)c4ccc(Br)cc43)cc2O1 [Example 179, (Z)-Diethyl 5-(((6-bromo-1,3-dioxo-2,3-dihydroisoquinolin-4(1H)-ylidene)methylamino)methyl)benzo[d][1,3]dioxole-2,2-dicarboxylate]
- IC50 (BT474): 17 µM
- IC50 (HCT-116): 34 µM
- IC50 (LoVo): 20 µM
- IC50 (MCF-7): 30 µM
- melting point: 222 to 223 °C

SMILES: O=C1NC(=O)c2ccc(Br)cc2/C1=C/NCc1ccc(NC(=O)C2CC2)c(OC(=O)C2CC2)c1 [Example 185, 5-({[(Z)-(6-Bromo-1,3-dioxo-2,3-dihydroisoquinolin-4(1H)-′cyclopropanecarboxylate ′ylidene)methyl]amino}methyl)-2-[(cyclopropylcarbonyl)amino]phenyl]
- IC50 (BT474): 0.87 µM
- IC50 (HCT-116): 2.8 µM
- IC50 (LoVo): 2.7 µM
- IC50 (MCF-7): > 50 µM
- melting point: 245 to 246 °C

SMILES: COc1ccc(-c2ccc3c(c2)/C(=C/Nc2ccc(N4CCN(C)CC4)cc2)C(=O)NC3=O)cc1 (hydrate or solvate) [Example 114, (4Z)-6-(4-methoxyphenyl)-4-({[4-(4-methylpiperazin-1-yl)phenyl]amino}methylene)-isoquinoline-1,3(2H,4H)-dione]
- melting point: 224 to 225 °C

SMILES: O=C1NC(=O)c2ccc(Br)cc2/C1=C/NCc1cccnc1 [Example 30, (4Z)-6-Bromo-4-{[(pyridin-3-ylmethyl)amino]methylene}isoquinoline-1,3(2H,4H)-dione]
- melting point: 299 to 300 °C

SMILES: COc1ccc(CN/C=C2\C(=O)NC(=O)c3ccc(Cl)cc32)cc1O (as salt: hydrochloride) [Example 67, (4Z)-6-Chloro-4-{[(3-hydroxy-4-methoxybenzyl)amino]methylene}isoquinoline-1,3(2H,4H)-dione]
- melting point: 265 to 266 °C

SMILES: C[C@@H]1CN(c2ccc(N/C=C3\C(=O)NC(=O)c4ccc(-c5ccoc5)cc43)cc2)C[C@H](C)N1 (as salt: sodium) [Example 207, (4Z)-4-({[4-(3,5-Dimethylpiperazin-1-yl)phenyl]amino}methylene)-6-(3-furyl)iso-quinoline-1,3(2H,4H)-dione]
- melting point: 199 to 200 °C

SMILES: O=C1NC(=O)c2ccccc2/C1=C/Nc1ccc2cn[nH]c2c1 [Example 7, (4Z)-4-[(1H-Indazol-6-ylamino)methylene]isoquinoline-1,3(2H,4H)-dione]
- melting point: > 300 °C

SMILES: CN1CCN(c2ccc(N/C=C3\C(=O)NC(=O)c4ccccc43)cc2)CC1
- melting point: 245 to 246 °C

SMILES: COc1ccc(CN/C=C2\C(=O)NC(=O)c3ccc(-c4ccc(F)cc4)cc32)cc1O (as salt: sodium) [Example 208, (4Z)-6-(4-Fluorophenyl)-4-{[(3-hydroxy-4-methoxybenzyl)amino]methylene}iso-quinoline-1,3(2H,4H)-dione]
- melting point: 239 to 240 °C

SMILES: CN1CCN(c2ccc(N/C=C3\C(=O)NC(=O)c4ccc(-c5ccc(C=O)cc5)cc43)cc2)CC1 (hydrate or solvate) [Example 115, 4-[(4Z)-4-({[4-(4-Methylpiperazin-1-yl)phenyl]amino}methylene)-1,3-dioxo-1,2,3,4-tetra-hydroisoquinolin-6-yl]benzaldehyde]
- melting point: 152 to 153 °C

SMILES: CN1CCN(c2ccc(N/C=C3\C(=O)NC(=O)c4ccc(-c5ccc(F)cc5)cc43)cc2)CC1 (as salt: sodium) [Example 263, (4Z)-6-(4-Fluorophenyl)-4-({[4-(4-methylpiperazin-1-yl)phenyl]amino}methylene)-isoquinoline-1,3(2H,4H)-dione]
- melting point: 228 to 229 °C

SMILES: COc1ccc(CN/C=C2\C(=O)NC(=O)c3ccc(I)cc32)cc1O (as salt: hydrochloride) [Example 80, (4Z)-6-Iodo-4-{[(3-hydroxy-4-methoxybenzyl)amino]methylene}isoquinoline-1,3(2H,4H)-dione]
- melting point: 209 to 210 °C

SMILES: O=C1NC(=O)c2ccc(Br)cc2/C1=C/NCc1ccc(OCCO)c(O)c1 (as salt: potassium) [Example 139, (4Z)-6-Bromo-4-({[3-hydroxy-4-(2-hydroxyethoxy)benzyl]amino}methylene)isoquinoline-1,3(2H,4H)-dione]
- melting point: 166 to 167 °C

SMILES: C[C@@H]1CN(c2ccc(N/C=C3\C(=O)NC(=O)c4ccc(-c5ccsc5)cc43)cc2)C[C@H](C)N1 (as salt: sodium) [Example 206, (4Z)-4-({[4-(3,5-Dimethylpiperazin-1-yl)phenyl]amino}methylene)-6-thien-3-ylisoquinoline-1,3(2H,4H)-dione]
- melting point: 164 to 165 °C

SMILES: CC(=O)Nc1ccc(CN/C=C2\C(=O)NC(=O)c3ccc(I)cc32)cc1O (as salt: potassium) [Example 151, N-[2-Hydroxy-4-({[(Z)-(6-iodo-1,3-dioxo-2,3-dihydroisoquinolin-4(1H)-′ylidene)methyl]amino}methyl)phenyl]acetamide]
- melting point: 345 to 346 °C

SMILES: COc1ccc(CN/C=C2\C(=O)NC(=O)c3ccc(-c4cccc(F)c4)cc32)cc1O (as salt: sodium) [Example 209, (4Z)-6-(3-Fluorophenyl)-4-{[(3-hydroxy-4-methoxybenzyl)amino]methylene}iso-quinoline-1,3(2H,4H)-dione]
- melting point: 204 to 205 °C
